{"source": "the NIST ThermoML archive (doi:10.1021/je8008649)", "assay": "mn = molality of the nth substance listed, in mol/kg", "details": "101 kPa, Liquid, m1 = 4.655", "note": "± gives the expanded uncertainty stated by the source.", "data": [{"smiles": "N.N.O=S(=O)(O)O", "note": "[ammonium sulfate] + O", "values": [{"measurement": "mass density", "setting": "293.15 K", "value": "1217.66 ± 0.47", "unit": "kg/m3"}, {"measurement": "mass density", "setting": "298.15 K", "value": "1215.79 ± 0.47", "unit": "kg/m3"}, {"measurement": "viscosity", "setting": "298.15 K", "value": "2.114 ± 0.024", "unit": "mPa·s"}, {"measurement": "mass density", "setting": "303.15 K", "value": "1213.89 ± 0.47", "unit": "kg/m3"}, {"measurement": "viscosity", "setting": "303.15 K", "value": "1.944 ± 0.022", "unit": "mPa·s"}, {"measurement": "mass density", "setting": "308.15 K", "value": "1211.94 ± 0.46", "unit": "kg/m3"}, {"measurement": "viscosity", "setting": "308.15 K", "value": "1.785 ± 0.021", "unit": "mPa·s"}, {"measurement": "mass density", "setting": "313.15 K", "value": "1209.97 ± 0.46", "unit": "kg/m3"}]}]}
